This test has as its target T1, SF9 affinity purified rat FPT (Rattus norvegicus, UniProt Q02293+Q04631).
T1 construct: made in house; host or cells: Sf9 insect cells
In words: PFT (FPT) inhibitory activity assay, radiolabeled farnesyl pyrophosphate and biotinyl peptide, streptavidin beads. It counts as biochemical. As to conditions: HEPES buffer pH 7.4, 30° C., 30 minutes; read-out: FTase IC50. The procedure: The PFT or FPT inhibitory activity of compounds of the present invention were assayed in HEPES buffer (pH 7.4) containing 5 mM potassium phosphate and 20 μM ZnCl2. The solution also contained 5 mM DTT (dithiothreitol), 5 mM MgCl2, and 0.1% PEG 8000. Assays were performed in 96 well plates (Wallec) and employed solutions composed of varying concentrations of a compound of the present invention in 10% DMSO (dimethylsulfoxide). […] After incubation at 30° C. for 30 minutes, the reaction was terminated by diluting the reaction 2.5-fold with a stop buffer containing 1.5 M magnesium acetate, 0.2 M H3PO4, 0.5% BSA (bovine serum albumin), and strepavidin beads (Amersham) at a concentration of 1.3 mg/mL. […] The assay was also carried out without 5 mM potassium phosphate.
Broadly, the IC50 is the point on the concentration scale where inhibition reaches its midpoint. Regarding `COC(=O)c1ccccc1S(=O)(=O)NCc1c(O[C@H](Cn2ccnc2)c2ccccc2)ccc2c1CCCC2=O` [Compound 42c], the IC50 stood at 3.5 nM.

On to `O=C1CCCc2c1ccc(O[C@H](Cn1ccnc1)c1ccccc1)c2CNS(=O)(=O)c1cc(Cl)sc1Cl` [Compound 42d, 2,5-Dichloro-thiophene-3-sulfonic acid [2-((S)-2-imidazol-1-yl-1-phenyl-ethoxy)-5-oxo-5,6,7,8-tetrahydro-naphthalen-1-ylmethyl]-amide; compound with trifluoro-acetic acid], for which the IC50 worked out at 2 nM.

Consider `O=C1CCCc2c1ccc(O[C@H](Cn1ccnc1)c1ccccc1)c2CNS(=O)(=O)c1cccc(Cl)c1` [Compound 42e, 3-Chloro-N-[2-((S)-2-imidazol-1-yl-1-phenyl-ethoxy)-5-oxo-5,6,7,8-tetrahydro-naphthalen-1-ylmethyl]-benzenesulfonamide; compound with trifluoro-acetic acid], for which the IC50 stood at 1.5 nM.

With `O=C1CCCc2c1ccc(O[C@H](Cn1ccnc1)c1ccccc1)c2CNS(=O)(=O)c1ccc2ccccc2c1` [Compound 42f, Naphthalene-2-sulfonic acid [2-((S)-2-imidazol-1-yl-1-phenyl-ethoxy)-5-oxo-5,6,7,8-tetrahydro-naphthalen-1-ylmethyl]-amide; compound with trifluoro-acetic acid], the IC50 stood at 4 nM.

On to `O=C1CCCc2c1ccc(O[C@H](Cn1ccnc1)c1ccccc1)c2CNS(=O)(=O)Cc1ccccc1` [Compound 42g], for which the IC50 came to 1.5 nM.

As for `O=C(NCc1c(O[C@H](Cn2ccnc2)c2ccccc2)ccc2c1CCCC2=O)c1ccccn1` [Compound 42h, Pyridine-2-carboxylic acid [2-((S)-2-imidazol-1-yl-1-phenyl-ethoxy)-5-oxo-5,6,7,8-tetrahydro-naphthalen-1-ylmethyl]-amide], the IC50 was 8 nM.

Turning to `O=C(NCc1c(O[C@H](Cn2ccnc2)c2ccccc2)ccc2c1CCCC2=O)c1ccccc1` [Compound 42i, N-[2-((S)-2-Imidazol-1-yl-1-phenyl-ethoxy)-5-oxo-5,6,7,8-tetrahydro-naphthalen-1-ylmethyl]-benzamide], the IC50 came to 1.5 nM.

Turning to `CSCC[C@H](NC(=O)OC(C)(C)C)C(=O)NCc1c(O[C@H](Cn2ccnc2)c2ccccc2)ccc2c1CCCC2=O` [Compound 42j, ((S)-1-{[2-((S)-2-Imidazol-1-yl-1-phenyl-ethoxy)-5-oxo-5,6,7,8-tetrahydro-napthalen-1-ylmethyl]-carbamoyl}-3-methylsulfanyl-propyl)-carbamic acid tert-butyl ester], the IC50 came out at 4.4 nM.

As for `CSCC[C@H](N)C(=O)NCc1c(O[C@H](Cn2ccnc2)c2ccccc2)ccc2c1CCCC2=O` [Compound 42k, (S)-2-Amino-N-[2-((S)-2-imidazol-1-yl-1-phenyl-ethoxy)-5-oxo-5,6,7,8-tetrahydro-naphthalen-1-ylmethyl]-4-methylsulfanyl-butyramide], the IC50 was 16 nM.

For the compound `O=C1CCCc2c1ccc(O[C@H](Cn1ccnc1)c1ccccc1)c2CN1C(=O)c2ccccc2C1=O` [Compound 43, 2-{[2-((1S)-2-imidazolyl-1-phenylethoxy)-5-oxo-6,7,8-trihydronaphenyl]methyl}isoindoline-1,3-dione], the IC50 turned out to be 1.7 nM.

In the case of `O=C1CCCc2c1ccc(O[C@H](Cn1ccnc1)c1ccccc1)c2CCc1ccsc1` [Compound 44a, 6-((S)-2-Imidazol-1-yl-1-phenyl-ethoxy)-5-(2-thiophen-3-yl-ethyl)-3,4-dihydro-2H-naphthalen-1-one], the 50% inhibitory concentration (IC50) came out at 0.87 nM.

Turning to `O=C1CCCc2c1ccc(O[C@H](Cn1ccnc1)c1ccccc1)c2CCCc1ccccc1` [Compound 44b, 6-((S)-2-Imidazol-1-yl-1-phenyl-ethoxy)-5-(3-phenyl-propyl)-3,4-dihydro-2H-naphthalen-1-one], the IC50 is 3.1 nM.

`O=C1CCCc2c1ccc(O[C@H](Cn1ccnc1)c1ccccc1)c2Cc1ccccc1` [Compound 45, 6-((1S)-2-imidazolyl-1-phenylethoxy)-5-benzyl-2,3,4-trihydro-naphthalen-one]: the IC50 stood at 2 nM.

For `O=C1CCCc2c1ccc(O[C@H](Cn1ccnc1)c1ccccc1)c2Oc1ccccc1` [Compound 46, 6-((1S)-2-imidazolyl-1-phenylethoxy)-5-phenoxy-2,3,4-trihydronaphthalen-1-one], the IC50 amounted to 37 nM.

In the case of `O=C1CCC(c2cccc(Cl)c2)c2cc(O[C@H](Cn3ccnc3)c3ccccc3)ccc21` (stereo partly drawn) [Compound 47, 6-((1S)-2-Imidazolyl-1-phenylethoxy)-4-(3-chlorophenyl)-2,3,4-trihydronaphthalen-1-one], the IC50 came out at 2 nM.

As to `CCCc1c(OC(Cn2ccnc2)c2ccccc2)ccc2c1CCCC2=O` (stereo not shown) [Compound 50, 6-(2-Imidazolyl-1-phenylethoxy)-5-propyl-2,3,4-trihydro-naphthalen-1-one], the IC50 was determined as 8 nM.

Regarding `C=CCc1c(O[C@H](Cn2ccnc2)c2ccccc2)ccc2c1CCCC2=O` [Compound 51, 6-((1S)-2-Imidazolyl-1-phenylethoxy)-5-prop-2-enyl-2,3,4-trihydronaphthalen-1-one], the IC50 amounted to 3 nM.

As for `CCCc1c(O[C@H](Cn2ccnc2)c2ccccc2)ccc2c1CCCC2=O` [Compound 53], the IC50 is 5 nM.

For the compound `C=C(C)Cc1c(O[C@H](Cn2ccnc2)c2ccccc2)ccc2c1CCCC2=O` [Compound 54, 6-((1S)-2-Imidazolyl-1-phenylethoxy)-5-(2-methylprop-2-enyl)-2,3,4-trihydronaphthalen-1-one], the IC50 was 5 nM.

`CC(C)Cc1c(O[C@H](Cn2ccnc2)c2ccccc2)ccc2c1CCCC2=O` [Compound 55, 6-((1S)-2-Imidazolyl-1-phenylethoxy)-5-(2-methylpropyl)-2,3,4-trihydronaphthalen-1-one]: the IC50 came out at 1 nM.

In the case of `C=CCc1c(O[C@H](Cn2ccnc2)c2ccccc2)ccc2c1CCC2=O` [Compound 56], the IC50 stood at 15 nM.

Regarding `CC(C)(Cn1ccnc1)Oc1ccc2c(c1CCc1ccccc1)CCCC2=O` [Compound 58a, 6-[2-(1H-Imidazol-1-yl)-1,1-dimethylethoxy]-5-(2-phenylethyl)-3,4-dihydro-1(2H)-naphthalenone], the IC50 came to 1.6 nM.

For the compound `CCCc1c(S[C@H](Cn2ccnc2)c2ccccc2)ccc2c1CCCC2=O` [Compound 62, 6-((1S)-2-imidazolyl-1-phenylethylthio)-5-propyl-2,3,4-trihydronaphthalen-1-one], the IC50 stood at 10 nM.

For the compound `O=C1CCCc2c1ccc(S[C@H](Cn1ccnc1)c1ccccc1)c2CCc1ccccc1` [Compound 63], the IC50 amounted to 0.2 nM.

As for `CC(C)S(=O)(=O)Cc1c(O[C@H](Cn2ccnc2)c2cccnc2)ccc2c1CCCC2=O` [Compound 63b, 6-((S)-2-Imidazol-1-yl-1-pyridin-3-yl-ethoxy)-5-(propane-2-sulfonylmethyl)-3,4-dihydro-2H-napthalen-1-one], the IC50 was found to be 0.94 nM.

Turning to `O=C1CCCc2c1ccc(O[C@H](Cn1ccnc1)c1cccnc1)c2CS(=O)(=O)c1ccccn1` [Compound 63ba, 6-((S)-2-Imidazol-1-yl-1-pyridin-3-yl-ethoxy)-5-(pyridin-2-ylsulfonylmethyl)-3,4-dihydro-2H-napthalen-1-one], the IC50 amounted to 0.16 nM.

As to `O=C1CCCc2c1ccc(O[C@H](Cn1ccnc1)c1cccnc1)c2CCc1ccccn1` [Compound 63c], the IC50 stood at 0.3 nM.

Take `O=C1CCCc2c1ccc(O[C@H](Cn1ccnc1)c1cccnc1)c2NC(=O)c1nccc2ccccc12` [Compound 63d, Isoquinoline-1-carboxylic acid [2-((S)-2-imidazol-1-yl-1-pyridin-3-yl-ethoxy)-5-oxo-5,6,7,8-tetrahydro-naphthalen-1-yl]-amide]: the IC50 is 0.17 nM.

As to `O=C(Nc1c(O[C@H](Cn2ccnc2)c2cccnc2)ccc2c1CCCC2=O)c1cnccn1` [Compound 63e, Pyrazine-2-carboxylic acid [2-((S)-2-imidazol-1-yl-1-pyridin-3-yl-ethoxy)-5-oxo-5,6,7,8-tetrahydro-naphthalen-1-yl]-amide], the IC50 worked out at 9.7 nM.

In the case of `O=C1CCCc2c1ccc(O[C@H](Cn1ccnc1)c1cccnc1)c2NC(=O)c1cnnc2ccccc12` [Compound 63f, Cinnoline-4-carboxylic acid [2-((S)-2-imidazol-1-yl-1-pyridin-3-yl-ethoxy)-5-oxo-5,6,7,8-tetrahydro-naphthalen-1-yl]-amide], the IC50 came to 13 nM.

Regarding `CC(C)[C@@H](Cn1ccnc1)Oc1ccc2c(c1CS(=O)(=O)C(C)C)CCCC2=O` [Compound 63g, 6-((S)-1-Imidazol-1-ylmethyl-2-methyl-propoxy)-5-(propane-2-sulfonylmethyl)-3,4-dihydro-2H-napthalen-1-one], the IC50 amounted to 9.5 nM.

`CC(C)[C@@H](Cn1ccnc1)Oc1ccc2c(c1NC(=O)c1nccc3ccccc13)CCCC2=O` [Compound 63h, Isoquinoline-1-carboxylic acid [2-((S)-1-imidazol-1-ylmethyl-2-methyl-propoxy)-5-oxo-5,6,7,8-tetrahydro-naphthalen-1-yl]-amide]: the IC50 amounted to 2.5 nM.

For the compound `O=C1CCCc2c1ccc(O[C@H](Cn1ccnc1)c1ccc(F)cc1F)c2CS(=O)(=O)c1ccccn1` [Compound 63j, (S)-6-[-1-(2,4-Difluoro-phenyl)-2-imidazol-1-yl-1-ethoxy]-5-(pyridin-2-ylsulfonylmethyl)-3,4-dihydro-2H-naphthalen-1-one], the IC50 is 1.5 nM.

For the compound `CC(C)C(Cn1ccnc1)Oc1ccc2c(c1CS(=O)(=O)c1ccccc1)CCCC2=O` (stereo not shown) [Compound 63l, 6-[1-(1H-Imidazol-1-ylmethyl)-2-methylpropoxy]-5-[(phenylsulfonyl)methyl]-3,4-dihydro-1(2H)-naphthalenone], the IC50 came out at 5.5 nM.

Source of the values: patent publication US6943183B2 (Pfizer Inc, priority 2000, dated 2005).
